Laboratory results: paper PMC8445441, “Elucidating the mechanism by which synthetic helper peptides sensitize Pseudomonas aeruginosa to multiple antibiotics” (PLoS Pathogens, 2021)

What was measured:
[1] = system: PAO1 in human blood; test: Antimicrobial activity in blood (ex vivo bacteremia model); format: cell-based, Pseudomonas aeruginosa; conditions: for antibacterial effect in blood (in words): human blood, 5×10^7 CFU/mL PAO1, antibiotic combined with D-11 (4 μM), 4 hours; for duration of control of the infection in blood: human blood infected with PAO1, in the presence of 4 μM D-11
Description: Human blood of healthy individuals was obtained from Sanquin (certified Dutch organization responsible for meeting the need in healthcare for blood and blood products, https://www.sanquin.nl/) and was infected with 5×10^7 CFU/mL of PAO1. The blood was distributed at 0.5 mL in 2 mL Eppendorf tubes and treated with the antibiotics and peptides at the indicated concentrations at 37 °C for 4 hours. The samples were decimal serially diluted in PBS. Drops of 10 μL of each dilution on LB agar to track the development of infection. The experiment was performed in triplicate.

[2] = system: P. aeruginosa PAO1; test: Cutaneous mouse abscess infection model; format: in vivo; conditions: BALB/c mice, PAO1 2×10^7 CFU; single dose; azithromycin 7.5, chloramphenicol 8, doxycycline 2 mg/kg, each with D-11 10 mg/kg; 20 h post infection
Description: The mouse cutaneous abscess infection model was performed as previously described with minor modifications. 8-week-old specific-pathogen-free female BALB/c mice were used in the experiment. Before infection, 80 μL of 7.5% chloral hydrate were injected intraperitoneally to anaesthetize the mice. PAO1 was grown to an OD600 of 1.0. The bacteria were collected by centrifugation and washed twice with saline. Then the bacteria were resuspended in saline at a concentration of 4 × 10^8 CFU/ml. 50 μL of the bacterial suspension were injected into the right side of the dorsum of the mouse, resulting in 2 × 10^7 CFU per mouse. 30 minutes after the infection, 50 μL saline alone or containing indicated concentration of antibiotic or 10 mg/kg D-11, or a combination of antibiotic and 10 mg/kg D-11 was injected into the infected area. 20 hours post infection, the skin abscess was excised and subjected to homogenization in saline. The live bacteria numbers were determined by plating.

SMILES	antibacterial effect in blood (in words) [1]	duration of control of the infection in blood [1]	reductions of CFU in the abscess compared to each individual antibiotic [2]
CO[C@@H]1[C@@H](OC(N)=O)[C@@H](O)[C@H](Oc2ccc3c(O)c(NC(=O)c4ccc(O)c(CC=C(C)C)c4)c(=O)oc3c2C)OC1(C)C [Novobiocin]	relative week antibacterial effects	–	–
CC[C@H]1OC(=O)[C@H](C)[C@@H](O[C@H]2C[C@@](C)(OC)[C@@H](O)[C@H](C)O2)[C@H](C)[C@@H](O[C@@H]2O[C@H](C)C[C@H](N(C)C)[C@H]2O)[C@](C)(OC)C[C@@H](C)C(=O)[C@H](C)[C@@H](O)[C@]1(C)O [Clarithromycin]	–	more than 24 hours	–
CO[C@H]1/C=C/O[C@@]2(C)Oc3c(C)c(O)c4c(O)c(c(/C=N/N5CCN(C)CC5)c(O)c4c3C2=O)NC(=O)/C(C)=C\C=C\[C@H](C)[C@H](O)[C@@H](C)[C@@H](O)[C@@H](C)[C@H](OC(C)=O)[C@@H]1C [Rifampicin]	best antibacterial effects	–	–
CO[C@H]1[C@H](OC(=O)c2ccc(C)[nH]2)[C@H](O)[C@@H](Oc2ccc3c(O)c(NC(=O)c4c[nH]c(C(=O)Nc5c(O)c6ccc(O[C@H]7OC(C)(C)[C@@H](OC)[C@H](OC(=O)c8ccc(C)[nH]8)[C@@H]7O)c(C)c6oc5=O)c4C)c(=O)oc3c2C)OC1(C)C [Coumermycin A1]	relative week antibacterial effects	–	–
O=C(N[C@H](CO)[C@H](O)c1ccc([N+](=O)[O-])cc1)C(Cl)Cl [Chloramphenicol]	best antibacterial effects	more than 24 hours	2–3 log10
C[C@H]1c2cccc(O)c2C(=O)C2=C(O)[C@]3(O)C(=O)C(C(N)=O)=C(O)[C@@H](N(C)C)[C@@H]3[C@@H](O)[C@@H]21 [Doxycycline]	best antibacterial effects	more than 24 hours	2–3 log10
CC[C@H]1OC(=O)[C@H](C)[C@@H](O[C@H]2C[C@@](C)(OC)[C@@H](O)[C@H](C)O2)[C@H](C)[C@@H](O[C@@H]2O[C@H](C)C[C@H](N(C)C)[C@H]2O)[C@](C)(O)C[C@@H](C)CN(C)[C@H](C)[C@@H](O)[C@]1(C)O [Azithromycin]	–	more than 24 hours	2–3 log10
